Results as given in patent US7064243B2, “Screens and assays for agents useful in controlling parasitic nematodes” (Cambria Biosciences LLC, priority 2001, dated 2006).
“Also recorded” adds a separate entry of the source. Read-outs that look alike come from different tables or passages of the source.

What was measured:
[1] = test system: secretion of the VAP-1-Myc fusion protein; assay: Secretion assay: immunoblot (anti-Myc) of VAP-1-Myc in conditioned axenic media of worms bearing the vap-1::myc transgene; format: in vivo, C. elegans; details: various concentrations, 16 hours, 24 well plates, dose-dependent fashion (FIG. 8)
Procedure: Worms (either animals bearing the vap-1::myc transgene or unc-119 (e2498) mutants rescued with plasmid pPD#MM016B as a negative control) were cultured in S basal medium (recipe below) containing HB101 bacteria as a food source for 4–5 days as described below. The worms were separated from the media by centrifugation and washed several times in S basal media. Worms were then resuspended in 50 ml of axenic media (recipe below) and cultured overnight (˜20 h). A vessel containing only axenic media without worms was maintained under identical conditions as a control. The worm density in both the vap-1::myc and unc-119 cultures was approximately 50,000 per ml. It was estimated that 50–70% of the worms carry the transgene.
After overnight incubation in axenic media, the worms and media were separated by centrifugation (see below for details) and the media were concentrated using Centriprep 30 concentrators (see below for details). […]
To determine the effect of 4,7 phenanthroline on secretion of the VAP-1-Myc fusion protein, worms (either transformation control or bearing the vap-1::myc transgene) were cultured in 24 well plates (in a manner similar to the 96 well scaledown protocol described below) in axenic media in the presence of various concencentrations of 4,7 phenanthroline for 16 hours. […] VAP-1-Myc fusion protein was detected with anti-Myc antibody as described above.

ASP-1 release = details: hookworm larvae, cited from earlier work
A. caninum L3 larvae = details: in vivo; cited from earlier work

c1cnc2ccc3ncccc3c2c1 [4,7-phenanthroline]
secretion of the VAP-1-Myc fusion protein [1]: inhibited | release of ASP-1 (ASP-1 release): known inhibitor; also recorded: blocked | release of ASP-1 (ASP-1 release; listed as 4,7 phenanthroline): known inhibitor | resumption of larval hookworm development (A. caninum L3 larvae): blocked
